In PubChem BioAssay (NCI):
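Protocol summary: plate cells (96-well), add compound at 5 concentrations, incubate 48 h, interpolate endpoints linearly. GI50 = concentration required for 50% inhibition of growth. At the TGI there is no net growth.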

Experiments:
Test in all cases: inhibition of tumour cell growth, NCI panel, 48 h
A549 NSCLC = test system: A549 NSCLC
CCRF-CEM leukemia = test system: CCRF-CEM leukemia
EKVX NSCLC = test system: EKVX NSCLC
HOP-62 NSCLC = test system: HOP-62 NSCLC
HT29 colon = test system: HT29 colon
KM12 colon = test system: KM12 colon
NCI-H460 lung = test system: NCI-H460 lung
OVCAR-3 ovarian = test system: OVCAR-3 ovarian
SF-539 CNS = test system: SF-539 CNS
SK-MEL-28 melanoma = test system: SK-MEL-28 melanoma

SMILES | GI50 (A549 NSCLC) [µM] | TGI (A549 NSCLC) [µM] | GI50 (CCRF-CEM leukemia) [µM] | TGI (CCRF-CEM leukemia) [µM] | GI50 (EKVX NSCLC) [µM] | TGI (EKVX NSCLC) [µM] | GI50 (HOP-62 NSCLC) [µM] | TGI (HOP-62 NSCLC) [µM] | GI50 (HT29 colon) [µM] | TGI (HT29 colon) [µM] | GI50 (KM12 colon) [µM] | TGI (KM12 colon) [µM] | GI50 (NCI-H460 lung) [µM] | TGI (NCI-H460 lung) [µM] | GI50 (OVCAR-3 ovarian) [µM] | TGI (OVCAR-3 ovarian) [µM] | GI50 (SF-539 CNS) [µM] | TGI (SF-539 CNS) [µM] | GI50 (SK-MEL-28 melanoma) [µM] | TGI (SK-MEL-28 melanoma) [µM]
COc1ccc(/C=C/c2cc(OC)c(OC)c(OC)c2)cc1NC(=O)/C=C/c1ccc(F)cc1 | 3.41 | > 100 | 2.99 | > 31.1 | 7.4 | > 100 | 3.84 | > 100 | 2.34 | 13.5 | 2.96 | > 100 | 3.09 | > 100 | 2.43 | 6.23 | 2.88 | 7.86 | 5.04 | > 100
Cc1nn(C(=O)c2ccccc2O)c2c1C(c1ccccc1)SC(N)=N2 (stereo unspecified) | – | > 10 | – | 8.15 | – | > 10 | – | > 10 | – | > 10 | – | > 10 | – | > 10 | – | 7.22 | – | 0.621 | – | > 10
O=C(O)C1CCc2ccc3ccccc3c2C1c1cccc2ccccc12 (stereo unspecified) | – | 36.4 | – | 50.7 | – | 85.8 | – | 35.9 | – | 32.7 | – | 37.8 | – | 38.2 | – | 29.8 | – | 49.8 | – | 39.5
COc1cc(-c2cc(=O)c3cc4c(cc3[nH]2)OCO4)cc(OC)c1OC | – | > 100 | – | > 100 | – | > 100 | – | 65.2 | – | > 100 | – | > 100 | – | > 100 | > 100 | > 100 | – | > 100 | – | > 100
COC1=CC23C=CC1[C@@H](c1ccccc1)C2=C(C)C(=O)N3C(=O)NC1CCCCC1 (stereo partly specified) | – | 79.8 | – | 72.5 | – | > 100 | – | 50.2 | – | 41.1 | – | > 100 | – | 42.2 | – | 59.8 | – | 39.2 | – | 42.2
c1cnc2c(c1)-n1cccc1C1(CCSCC1)NN2 | – | > 100 | – | > 100 | – | > 100 | – | > 100 | – | > 100 | – | > 100 | – | > 100 | – | > 100 | – | > 100 | – | > 100
Cc1cc2nc3c(=O)n(C)c(=O)nc-3n(-c3ccc(Cl)cc3)c2cc1C | – | 16.4 | – | 45.4 | – | 43.9 | – | 65.1 | – | 16.1 | – | > 100 | – | 10.6 | – | 8.81 | – | 25.4 | – | 33.4
CC1=C2C(O)C(C(C)CO)C(O)CC2(C)C(O)CC1 (stereo unspecified) | – | > 100 | – | > 100 | – | > 100 | – | > 100 | – | > 100 | – | > 100 | – | > 100 | – | > 100 | – | > 100 | – | > 100
O=C(Nc1ccc(Cl)cc1)Nc1ccc(Cl)c(Cl)c1 | 4.58 | > 100 | 2.25 | 7.8 | 3.41 | > 100 | 4.7 | > 100 | 3.76 | > 100 | 3.31 | 13.8 | 2.77 | 12.6 | 3.31 | > 100 | 2.96 | 60.4 | 6.07 | > 100
O=C1C=C(c2c(O)ccc3ccccc23)c2ccccc2C1=O | – | 25.7 | – | 7.55 | – | 11.9 | – | 33.5 | – | 27.2 | – | 11.8 | – | 26.8 | – | 6.02 | – | 4.36 | – | > 50
CCCCNc1nc(NC(C)(C)C)nc(NC(C)(C)C)n1 | 4.41 | > 100 | 3.18 | > 100 | 3.12 | > 100 | 18.7 | > 100 | 2.37 | > 100 | 4.87 | > 100 | 5.13 | > 100 | 12.6 | > 100 | 16.9 | > 100 | 30 | > 100
CCOC(=O)[C@@H](C)C[C@H](Cc1ccccc1)NC(=O)c1csc([C@@H](C[C@H](C(C)C)N(C)C(=O)[C@@H](NC(=O)[C@H]2C[C@H](O[Si](C)(C)C(C)(C)C)CCN2C)C(C)C)OC(C)=O)n1 | 0.379 | > 8.33 | 0.298 | > 6.87 | 0.505 | > 8.33 | 0.411 | > 8.01 | 0.267 | 1.96 | 0.241 | > 8.33 | 0.188 | 1.34 | 0.192 | > 2.07 | 0.21 | 0.625 | 0.491 | > 8.33
COc1cc2c(cc1C)NC(=O)/C2=C\c1cc(OC)c(OC)c(OC)c1 | > 100 | > 100 | 8.18 | 32.1 | > 100 | > 100 | 22.1 | 53.9 | > 100 | > 100 | > 100 | > 100 | > 100 | > 100 | > 100 | > 100 | 48.4 | > 100 | > 100 | > 100
CCN(CC)CCn1c2c3ccccc3ccc2c2oc(=O)c3ccccc3c21 | – | > 100 | – | > 100 | – | > 100 | – | 80.3 | – | > 100 | – | > 100 | – | > 100 | – | > 100 | – | 66.1 | – | > 100
O=C(Nc1ccccc1C(F)(F)F)c1cccc(NC2=C(Cl)C(=O)N(Cc3ccccc3)C2=O)c1 | 28.2 | > 77.8 | 10.4 | 31.7 | 13.2 | 52.6 | 19.1 | > 52.2 | 65.6 | > 100 | 19.2 | > 85.2 | 3.52 | 15.9 | 6.62 | > 43.8 | 12.1 | 34.8 | > 90.2 | > 100
CCOc1ccc(/C=C/C(=O)c2ccccc2)cc1 | 21.9 | 53.9 | 17.9 | 62.4 | 16 | 30.6 | 18.1 | 35.4 | 13.8 | 29.6 | 10.7 | 23.6 | 19.5 | 41.6 | 15.5 | 29.3 | 19.4 | 45.5 | 19.8 | 39.6
